Test results taken from ChEMBL document CHEMBL1201862, “PubChem BioAssay data set” (2004).
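Tested at 5 concentrations; 48 h exposure; 96-well plates; endpoints linearly interpolated, else capped at highest concentration. The concentration for 50% growth inhibition is given as GI50.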 Active and inactive are the calls of the source. Rule as the data show it: active = GI50 up to about 1.1 µM and inactive = higher.

Columns and labels:
Assay in all cases: inhibition of tumour cell growth, NCI panel, 48 h
COLO 205 = system: COLO 205
HOP-62 = system: HOP-62
LOX IMVI = system: LOX IMVI
Malme-3M = system: Malme-3M
OVCAR-3 = system: OVCAR-3
RPMI-8226 = system: RPMI-8226
RXF 393 = system: RXF 393
SK-MEL-2 = system: SK-MEL-2
SN12C = system: SN12C
SNB-75 = system: SNB-75
TK-10 = system: TK-10
HCC 2998 = system: HCC 2998
KM12 = system: KM12
MOLT-4 = system: MOLT-4
SK-MEL-5 = system: SK-MEL-5
SR = system: SR

Measured: GI50

O=C(N/N=C/c1cc(-c2ccccc2Cl)c(-c2ccccc2Cl)o1)c1ccncc1
inactive: COLO 205 > 100 µM | HOP-62 > 100 µM | LOX IMVI > 100 µM | Malme-3M > 100 µM | OVCAR-3 43.9 µM | RPMI-8226 23.6 µM | RXF 393 > 100 µM | SK-MEL-2 > 100 µM | SN12C > 100 µM | SNB-75 81.7 µM | TK-10 > 100 µM

CC(=O)Nc1ccc(C2CC(c3ccc([N+](=O)[O-])cc3)=Nc3ccccc3[S+]2[O-])cc1 (configuration not stated)
inactive: COLO 205 21.8 µM | HCC 2998 16.3 µM | HOP-62 22.1 µM | KM12 14.1 µM | LOX IMVI 14.7 µM | MOLT-4 12.6 µM | Malme-3M > 10 µM | OVCAR-3 25.3 µM | RPMI-8226 4.36 µM | RXF 393 17.4 µM | SK-MEL-2 27.4 µM | SK-MEL-5 19.6 µM | SN12C 24.5 µM | SNB-75 16.9 µM | TK-10 28.8 µM

COc1ccc(S(=O)(=O)NC(C)C(=O)O)cc1 (configuration not stated)
inactive: COLO 205 > 100 µM | KM12 > 100 µM | LOX IMVI > 100 µM | MOLT-4 > 100 µM | Malme-3M > 100 µM | OVCAR-3 > 100 µM | RPMI-8226 > 100 µM | RXF 393 > 100 µM | SK-MEL-2 > 100 µM | SK-MEL-5 > 100 µM | SN12C > 100 µM | SNB-75 70.5 µM | TK-10 > 100 µM

C[C@]12CCC3[C@@H](CCC45OC4C(=O)CC[C@]35C)C1Cc1cnn(-c3ccc(F)cc3)c1N2 (some centres not stated)
inactive: COLO 205 40.5 µM | HOP-62 29.6 µM | KM12 25.1 µM | LOX IMVI 16.7 µM | MOLT-4 22.9 µM | Malme-3M > 100 µM | RPMI-8226 19.5 µM | RXF 393 27.9 µM | SK-MEL-2 29.9 µM | SK-MEL-5 31.5 µM | SN12C 23.3 µM | SNB-75 38.6 µM | SR 27.2 µM | TK-10 > 100 µM

O=c1c2cccc3cccc(c4n1CCN=4)c32
inactive: COLO 205 > 100 µM | HOP-62 93.3 µM | KM12 76.9 µM | LOX IMVI 32 µM | MOLT-4 30.3 µM | Malme-3M > 100 µM | OVCAR-3 > 100 µM | RPMI-8226 > 100 µM | RXF 393 42.4 µM | SK-MEL-2 63.7 µM | SK-MEL-5 > 100 µM | SN12C > 100 µM | SNB-75 76.9 µM | SR 25.2 µM | TK-10 17.5 µM

COC(=O)/C(Cl)=C1/CC1COCc1ccccc1 (configuration not stated)
inactive: COLO 205 21.2 µM | HCC 2998 > 10 µM | HOP-62 > 100 µM | KM12 28.7 µM | LOX IMVI > 10 µM | MOLT-4 19.8 µM | Malme-3M 26.6 µM | OVCAR-3 23.2 µM | RPMI-8226 19.5 µM | RXF 393 18.9 µM | SK-MEL-2 31.9 µM | SK-MEL-5 24.1 µM | SN12C 36.6 µM | SNB-75 47.8 µM | TK-10 30.8 µM

Cn1c(=O)nc2n(-c3ccc(Cl)c(C(F)(F)F)c3)c3ccccc3nc-2c1=O
inactive: COLO 205 17.7 µM | HCC 2998 25.6 µM | HOP-62 57.9 µM | KM12 32.9 µM | LOX IMVI 35 µM | MOLT-4 36.7 µM | Malme-3M 15 µM | OVCAR-3 14.7 µM | RPMI-8226 33.2 µM | RXF 393 55.7 µM | SK-MEL-2 34.7 µM | SK-MEL-5 13.5 µM | SN12C 30.9 µM | SNB-75 94 µM | TK-10 > 79.6 µM

CCOc1ccc2c(c1)[n+]([O-])c(-c1ccccc1)c(N)[n+]2[O-]
inactive: COLO 205 30.5 µM | HCC 2998 68.5 µM | HOP-62 71.9 µM | KM12 97.3 µM | LOX IMVI > 100 µM | MOLT-4 46.8 µM | Malme-3M 66.7 µM | OVCAR-3 82.2 µM | RPMI-8226 > 100 µM | SK-MEL-2 > 100 µM | SK-MEL-5 24.3 µM | SN12C > 100 µM | SNB-75 > 100 µM | TK-10 > 100 µM

Nc1ccc(C(=O)NN2C(=O)C(Cl)C2c2cccc([N+](=O)[O-])c2)cc1 (configuration not stated)
inactive: COLO 205 19 µM | HCC 2998 24.3 µM | HOP-62 24.6 µM | KM12 16.2 µM | LOX IMVI 10.2 µM | MOLT-4 15.1 µM | Malme-3M 20.4 µM | OVCAR-3 20.5 µM | RPMI-8226 23.2 µM | SK-MEL-2 16.8 µM | SK-MEL-5 19.2 µM | SN12C 19.7 µM | SNB-75 18.7 µM | TK-10 18.7 µM

Clc1ccc(C2=NN(c3ccccc3)C3c4cc(Br)ccc4OCC23)cc1 (configuration not stated)
inactive: COLO 205 > 100 µM | HCC 2998 > 100 µM | HOP-62 > 100 µM | KM12 > 100 µM | LOX IMVI 64.3 µM | MOLT-4 40.9 µM | Malme-3M 96.4 µM | OVCAR-3 > 100 µM | RPMI-8226 11.6 µM | RXF 393 61.1 µM | SK-MEL-2 > 100 µM | SK-MEL-5 59.7 µM | SNB-75 > 100 µM | TK-10 > 100 µM

CCC12CCCC(=O)N1C(CO)C(c1ccccc1)O2 (configuration not stated)
inactive: COLO 205 > 100 µM | HOP-62 > 100 µM | KM12 > 100 µM | LOX IMVI > 100 µM | Malme-3M > 100 µM | OVCAR-3 > 100 µM | RPMI-8226 > 100 µM | RXF 393 > 100 µM | SK-MEL-2 > 100 µM | SK-MEL-5 > 100 µM | SN12C > 100 µM | SNB-75 > 100 µM | SR > 100 µM | TK-10 > 100 µM

O=C1C(Cl)C(c2ccc([N+](=O)[O-])cc2)N1n1cnc2ccccc2c1=O (configuration not stated)
inactive: COLO 205 > 100 µM | HCC 2998 73.6 µM | HOP-62 34.5 µM | KM12 89.9 µM | LOX IMVI 87.1 µM | MOLT-4 49.1 µM | Malme-3M > 100 µM | OVCAR-3 52.4 µM | RPMI-8226 > 10 µM | RXF 393 23.6 µM | SK-MEL-2 > 100 µM | SK-MEL-5 57 µM | SN12C 42.3 µM | SNB-75 13.9 µM | TK-10 25.3 µM

N#CC(N)(C(=O)CCC(=O)Nc1cccc(Cl)c1)c1ccc(Cl)cc1 (configuration not stated)
inactive: COLO 205 > 100 µM | HOP-62 > 100 µM | KM12 > 100 µM | MOLT-4 > 100 µM | Malme-3M > 100 µM | OVCAR-3 > 100 µM | RPMI-8226 > 100 µM | SK-MEL-2 > 100 µM | SK-MEL-5 > 100 µM | SN12C > 100 µM | SNB-75 > 100 µM | SR > 100 µM | TK-10 > 100 µM

CCOP(=O)(OCC)C1CC(C)OC1=O (configuration not stated)
inactive: COLO 205 > 100 µM | HCC 2998 > 100 µM | HOP-62 > 100 µM | KM12 > 100 µM | LOX IMVI > 100 µM | MOLT-4 > 100 µM | Malme-3M > 100 µM | OVCAR-3 > 100 µM | RPMI-8226 > 100 µM | RXF 393 > 100 µM | SK-MEL-2 > 100 µM | SK-MEL-5 > 100 µM | SN12C > 100 µM | SNB-75 > 100 µM | TK-10 > 100 µM
